The text below walks through data of publication PMC13463089, “PA200 modulates immunoproteasome structure and activity” (Nature Communications, 2026).

Assay [1] deals with T1, i20S-PA200 complex (PA200 / PSME4 bound to the immunoproteasome) (Homo sapiens, UniProt Q14997).
T1 construct: recombinant purified human PA200, about 200 kDa, one or two copies per 20S; human i20S commercial (cryo-EM) or purified from HEK293-EBNA (activity); with Proteasome subunit beta type-8; Proteasome subunit beta type-9; Proteasome subunit beta type-10; Proteasome subunit alpha type-6; Proteasome subunit alpha type-2; Proteasome subunit alpha type-4; Proteasome subunit alpha type-7; Proteasome subunit alpha type-5; Proteasome subunit alpha type-1; Proteasome subunit alpha type-3; Proteasome subunit beta type-3; Proteasome subunit beta type-2; Proteasome subunit beta type-1; Proteasome subunit beta type-4
Briefly: fluorogenic peptide assay of […] activity. It is filed as biochemical. The note with it: PA200 21.5 nM preincubated with 70 uM IP6, i20S 1.5 nM; substrates LLVY, ANW, PAL, LRR; pH 7.6, 37 C; activator.

Assay [2] has as its target T2, s20S-PA200 complex (PA200 / PSME4 bound to the standard proteasome) (Homo sapiens, UniProt Q14997).
T2 construct: recombinant purified human PA200 mixed with purified human s20S; with Proteasome subunit beta type-5; Proteasome subunit beta type-6; Proteasome subunit beta type-7; Proteasome subunit alpha type-6; Proteasome subunit alpha type-2; Proteasome subunit alpha type-4; Proteasome subunit alpha type-7; Proteasome subunit alpha type-5; Proteasome subunit alpha type-1; Proteasome subunit alpha type-3; Proteasome subunit beta type-3; Proteasome subunit beta type-2; Proteasome subunit beta type-1; Proteasome subunit beta type-4
Kind of assay: fluorogenic peptide assay of […] activity. It is filed as biochemical. The conditions noted are these: PA200 21.5 nM preincubated with 70 uM IP6, s20S 1.5 nM; pH 7.6, 37 C.

For assay [3], the target named is T1, i20S-PA200 complex (PA200 / PSME4 bound to the immunoproteasome). Briefly: cryo-EM structure ([…] and […] A). The note with it: two IP6 molecules in the two positively charged grooves of PA200; density assigned by analogy to s20S-PA200 structures. Type of assay: binding.

T1 sequence (Q14997 whole entry): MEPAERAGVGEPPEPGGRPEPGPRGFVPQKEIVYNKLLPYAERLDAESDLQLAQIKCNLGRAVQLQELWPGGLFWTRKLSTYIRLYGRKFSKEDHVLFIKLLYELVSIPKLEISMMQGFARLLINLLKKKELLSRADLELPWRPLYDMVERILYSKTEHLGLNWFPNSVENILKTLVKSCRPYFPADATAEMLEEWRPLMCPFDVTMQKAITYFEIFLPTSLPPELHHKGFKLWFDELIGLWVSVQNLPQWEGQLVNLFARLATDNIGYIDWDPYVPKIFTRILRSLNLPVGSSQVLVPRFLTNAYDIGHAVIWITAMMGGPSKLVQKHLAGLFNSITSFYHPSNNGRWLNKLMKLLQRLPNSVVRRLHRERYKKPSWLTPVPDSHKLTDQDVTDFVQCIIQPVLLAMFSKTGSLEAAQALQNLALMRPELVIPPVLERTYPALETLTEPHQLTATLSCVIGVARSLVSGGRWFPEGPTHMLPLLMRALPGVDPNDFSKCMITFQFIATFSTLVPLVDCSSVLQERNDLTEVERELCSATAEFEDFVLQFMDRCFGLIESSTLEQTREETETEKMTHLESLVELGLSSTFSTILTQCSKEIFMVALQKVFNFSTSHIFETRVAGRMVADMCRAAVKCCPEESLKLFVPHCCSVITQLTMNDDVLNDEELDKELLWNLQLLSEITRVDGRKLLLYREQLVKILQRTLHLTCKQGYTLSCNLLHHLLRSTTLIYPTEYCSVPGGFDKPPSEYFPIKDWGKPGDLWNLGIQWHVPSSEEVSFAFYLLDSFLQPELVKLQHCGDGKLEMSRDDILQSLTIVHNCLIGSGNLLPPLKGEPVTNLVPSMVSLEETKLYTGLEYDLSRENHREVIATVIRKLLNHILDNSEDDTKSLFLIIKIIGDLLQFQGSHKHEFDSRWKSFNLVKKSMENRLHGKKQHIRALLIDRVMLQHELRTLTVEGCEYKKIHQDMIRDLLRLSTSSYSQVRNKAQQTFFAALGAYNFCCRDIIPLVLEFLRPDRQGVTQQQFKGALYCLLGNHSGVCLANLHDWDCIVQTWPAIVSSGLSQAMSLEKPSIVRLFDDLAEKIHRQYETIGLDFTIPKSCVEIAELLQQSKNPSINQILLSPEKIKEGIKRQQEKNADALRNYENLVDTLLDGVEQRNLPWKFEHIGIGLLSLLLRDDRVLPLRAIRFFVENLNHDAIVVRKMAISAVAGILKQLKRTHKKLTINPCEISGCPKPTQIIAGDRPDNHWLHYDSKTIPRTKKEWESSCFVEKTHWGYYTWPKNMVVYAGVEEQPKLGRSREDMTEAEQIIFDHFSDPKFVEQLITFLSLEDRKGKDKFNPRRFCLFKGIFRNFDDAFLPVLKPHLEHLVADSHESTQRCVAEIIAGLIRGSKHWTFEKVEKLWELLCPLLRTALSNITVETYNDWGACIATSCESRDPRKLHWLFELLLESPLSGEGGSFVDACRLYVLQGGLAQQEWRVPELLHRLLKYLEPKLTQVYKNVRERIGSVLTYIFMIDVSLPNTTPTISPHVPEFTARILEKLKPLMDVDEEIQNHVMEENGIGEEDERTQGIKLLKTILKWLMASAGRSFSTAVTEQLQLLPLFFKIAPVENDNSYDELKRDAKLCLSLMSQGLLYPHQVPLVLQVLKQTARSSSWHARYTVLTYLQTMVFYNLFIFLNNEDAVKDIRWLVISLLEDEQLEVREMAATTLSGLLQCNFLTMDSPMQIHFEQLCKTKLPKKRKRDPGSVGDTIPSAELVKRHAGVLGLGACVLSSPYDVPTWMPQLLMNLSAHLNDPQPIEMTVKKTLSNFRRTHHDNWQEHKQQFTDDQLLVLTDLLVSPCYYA
T1 sequence (P28062 73-276 partner): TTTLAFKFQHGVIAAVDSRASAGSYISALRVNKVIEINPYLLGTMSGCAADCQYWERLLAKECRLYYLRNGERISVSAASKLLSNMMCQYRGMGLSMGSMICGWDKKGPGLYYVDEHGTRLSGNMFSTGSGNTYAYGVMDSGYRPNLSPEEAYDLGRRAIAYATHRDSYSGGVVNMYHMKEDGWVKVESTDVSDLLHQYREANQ
T1 sequence (P28065 21-219 partner): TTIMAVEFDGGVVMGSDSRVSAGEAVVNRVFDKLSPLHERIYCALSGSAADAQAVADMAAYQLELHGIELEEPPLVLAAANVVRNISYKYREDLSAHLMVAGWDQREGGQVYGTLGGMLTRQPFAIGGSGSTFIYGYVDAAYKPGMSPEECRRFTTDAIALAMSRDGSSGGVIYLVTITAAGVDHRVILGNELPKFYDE
T1 sequence (P40306 40-273 partner): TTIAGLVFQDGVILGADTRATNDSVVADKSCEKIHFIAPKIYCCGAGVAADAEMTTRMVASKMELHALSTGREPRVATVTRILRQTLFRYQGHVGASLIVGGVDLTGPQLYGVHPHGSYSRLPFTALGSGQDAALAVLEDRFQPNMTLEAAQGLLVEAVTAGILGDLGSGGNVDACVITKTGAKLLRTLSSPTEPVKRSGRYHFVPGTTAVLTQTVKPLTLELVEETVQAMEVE
T2 sequence (Q14997 whole entry): as the sequence (Q14997 whole entry) above
T2 sequence (P28074 60-263 partner): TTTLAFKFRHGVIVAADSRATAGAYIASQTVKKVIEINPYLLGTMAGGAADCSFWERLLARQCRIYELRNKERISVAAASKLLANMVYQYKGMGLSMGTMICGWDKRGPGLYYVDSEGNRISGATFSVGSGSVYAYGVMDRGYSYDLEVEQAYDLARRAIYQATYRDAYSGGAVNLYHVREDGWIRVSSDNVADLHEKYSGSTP
T2 sequence (P28072 35-239 partner): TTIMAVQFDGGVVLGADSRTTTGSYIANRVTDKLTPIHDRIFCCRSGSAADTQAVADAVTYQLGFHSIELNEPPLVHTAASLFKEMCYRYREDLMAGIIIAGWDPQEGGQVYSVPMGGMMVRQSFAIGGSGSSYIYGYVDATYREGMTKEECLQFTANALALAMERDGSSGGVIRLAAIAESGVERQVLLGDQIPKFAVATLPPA
T2 sequence (Q99436 44-277 partner): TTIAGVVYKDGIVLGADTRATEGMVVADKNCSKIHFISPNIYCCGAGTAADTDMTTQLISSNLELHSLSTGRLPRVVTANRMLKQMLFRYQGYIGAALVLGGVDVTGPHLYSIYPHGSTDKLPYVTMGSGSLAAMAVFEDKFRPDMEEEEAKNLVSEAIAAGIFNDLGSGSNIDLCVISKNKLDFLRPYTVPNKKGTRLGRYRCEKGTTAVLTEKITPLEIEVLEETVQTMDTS

`O=P(O)(O)O[C@H]1[C@H](OP(=O)(O)O)[C@@H](OP(=O)(O)O)[C@H](OP(=O)(O)O)[C@@H](OP(=O)(O)O)[C@H]1OP(=O)(O)O` [IP6]: the relative activity result in assay [1] is “strong increase of the three activities that are specific for the i20S”; in assay [2], “Effect of phytic acid (IP6) on PA200-activated i20S (B, dark blue bars) and s20S”. Also, the “cryo-EM structure (2.85 and 2.89 A)” value in assay [3] is recorded as “we assigned these densities to two molecules of IP6”.
